# Laboratory results reported in patent publication US11071550B2, “Methods and devices for treating pancreatitis” (priority 2017, dated 2021).
# How the values were obtained:
# [1] = test system: monkey pancreas; details: 1% acetic acid
# Excerpt: Cynomologus monkeys can be used to study the retrograde infusion protocol in primates. […] The Cynomologus monkeys are first quarantined for 30 days, then transferred to the primate facility and given a 1 to 2-week acclimatization period before operating. After acclimatization, the animals undergo a laparotomy and duodenotomy with cannulation of the ampulla of Vater and temporary clamping of the common bile duct to prevent perfusion of the liver (additional details below).
# Fluoroscopic dye can also be infused to confirm the location and positioning of the catheter (FIGS. 12A and 12B). […] The catheter and clamp are then removed and the surgery completed.
# Cynomologus infusion procedure details: After induction of general anesthesia, the abdomen is prepped and draped and a 10 to 12 centimeter upper abdominal midline incision created. The duodenum is fully mobilized out of the retroperitoneum and a non-crushing clamp applied to the common bile duct to prevent the composition from perfusing the bile duct and liver. A two centimeter duodenotomy is then created to expose the ampulla of Vater, which is cannulated with a 2.8 French double lumen umbilical artery catheter. A clamp is then placed on the minor papilla and catheter to prevent back leaking of the composition. […]
# During the 3 to 6-week period between the procedure and the sacrifice, Cynomologus monkeys are supplied with CREON enzymes as a dietary supplement to avoid malabsorption due to loss of acinar enzyme production by the pancreas. […] Throughout the 3 to 6-week period, the Cynomologus monkeys are monitored for scleral icterus as a sign of possible biliary obstruction due to bile duct structuring caused by the infusion.
# At harvest, the pancreas and duodenum are examined grossly in situ, and then removed en bloc along with the common bile duct. […] In addition, beta cell mass is calculated based on the percent insulin positive area on histology along with the gross weight of the pancreas.
# [2] = test system: mouse pancreas
# [3] = test system: mouse pancreas; remark: listed apart in the source
# [4] = test system: Mouse islets; test: In vitro static glucose stimulated insulin secretion (GSIS) of isolated islets
# [5] = test system: ligated tail of the pancreas
# Excerpt: Mouse pancreatic duct ligation (PDL) yields a model that is reflective of chronic pancreatitis with progressive loss of islet tissue. In the PDL procedure, the pancreatic duct is ligated at the mid-point of the pancreas (FIG. 4, right image). Thus, only the distal half (tail) of the pancreas is affected since the ligation is positioned at the mid-point of the duct. […] FIGS. 5A-5E show insulin staining using DAB, whereas FIGS. 5F-5J show insulin and amylase staining using immunofluorescence (with a Hoescht counterstain for labeling cell nuclei).
# The negative effects of a pancreatitis milieu on β-cell function are well known (17).
# Five repeats are analyzed in each condition. […] Significance is considered when p<0.05.
# [6] = 100% ethanol, 1, 3, 6, 9 months
# [7] = 100% ethanol infused at 8 weeks post-PDL
structure (smiles),measurement,setting,value
CC(=O)O [acetic acid],recovery from the infusion procedure,[1]; e.g. 7 milliliters at 500 centimeters of water,recover well
same,ablation of the exocrine pancreas,[1]; three weeks after infusion,"ablation of the exocrine pancreas in the head and body of the pancreas, and part of the tail"
same,islets (H&E),[1]; three weeks after infusion,intact islets
same,"immunohistochemistry of treated pancreatic tissue (insulin, amylase)",[2]; 1% acetic acid,insulin positive and amylase negative
same,islets (histology),[2]; 1% acetic acid,remained intact
same,open field testing: rearing (time pressed) vs sham group,[2]; 1% acetic acid,not significantly different
same,exocrine tissue,"[2]; 1% acetic acid, 6 months (FIG. 7)",ablation of the exocrine tissue
same,pain,"[2]; 1% acetic acid, conclusion from open field testing",does not cause pain
same,open field testing: distance traveled vs sham group,"[2]; 1% acetic acid, distance in meters",not significantly different
CCO [ethanol],fasting glucose levels vs sham operated controls,"[2]; Example 2, all time points",no difference
same,glucose tolerance tests vs sham operated controls,"[2]; Example 2, all time points",no difference
same,time to significant levels of ethanol in the blood after infusion,[3]; 100% ethanol pancreatic ductal infusion,≤ 5 min
same,pancreatic acinar tissue upon sacrifice,"[3]; 100% ethanol, 100 microliters, sacrifice at 1, 3, 6, 9 months",no evidence of pancreatic acinar tissue
same,amylase (AMY) staining,[3]; [6],absent at all time points
same,pancreatic endocrine tissue (β-cells and alpha cells),[3]; [6],well-preserved
same,endocrine function: in vivo insulin levels during glucose tolerance testing,"[3]; 100% ethanol, 9-month time point",appears normal
same,islet vasculature (CD31 staining),"[3]; 100% ethanol, 9 months",appears to be intact
same,fasting glucose levels vs sham-operated controls,"[3]; 100% ethanol, all time points",no difference
same,glucose tolerance tests vs sham-operated controls,"[3]; 100% ethanol, all time points",no difference
same,body weight vs controls,"[3]; 100% ethanol, elemental diet",not different from controls
same,β-cell mass vs sham-operated,"[3]; 100% ethanol, pancreatic tail, any time point",no significant difference
same,insulin secretion by islets from the pancreatic tail (in vitro GSIS),"[4]; PDL+ethanol-infused tail islets, per 200 islets, low or high glucose, vs sham",normal insulin secretion pattern
same,endocrine function: in vitro glucose-stimulated insulin secretion (GSIS),"[4]; islets from 100% ethanol-infused mice, 9-month time point",appears normal
same,loss of islets in the pancreatic tail,[5]; [7],prevents the loss of islets in the pancreatic tail
same,recurrent inflammation,[5]; [7],no detectable recurrent inflammation
same,regeneration of acinar cells,"[5]; 100% ethanol infused at 8 weeks post-PDL, insulin and amylase staining",no detectable regeneration of acinar cells
same,β-cell mass in the ligated tail,"[5]; PDL + ethanol infusion at 8 weeks, 24 weeks, mean±SEM",0.61±0.01 milligrams
same,fasting blood glucose levels vs PDL and sham operated,"[5]; PDL+ethanol-infused, 24 weeks",no different
same,glucose tolerance testing vs PDL and sham operated,"[5]; PDL+ethanol-infused, 24 weeks",no different
same,jaundice rates,"[5]; male, C57BL/6, mouse, in vivo",less than 5%
